In patent US6455470B1, “Herbicidal compositions” (priority 1994, dated 2002):
“And” between values parts separate entries of the source, which are not always exact repeats. Equal values may be shown once.

What was measured:
Assay type in all cases: in vivo
[1] = test system: Veronica persica (common field speedwell); test: Growth room pot test, post-emergence phytotoxicity on VERPE
Experimental: (§1) A simple mathematical method to test the additivity of a pesticide combination is based on the equation: [formula]
(§2) in which X and Y represent the percentage-of-inhibition of growth by toxicant A and B, respectively. E is the expected percentage-of-inhibition of growth by the mixture A and B. In order to show synergism, the actual efficacy should be higher than E.
(§3) are formulated as suspension concentrates (SC) containing about 42% by weight of active ingredient.
(§4) The compounds were tested alone and in admixture with a co-herbicide, which was also tested alone, against the following weeds:
(§5) In the test procedure three replicate pots per treatment were randomly arranged through a growth room. The plants were treated about three weeks after planting and then submitted to a photoperiod of 14 hours per day; the temperature was 15 degrees Centigrade during the day and 9 degrees at night. All applications of test formulations were performed using a MARDRIVE sprayer, simulating as far as possible field conditions. The pressure was controlled at 2 bar and the water volume was 300 l/ha. The weed plants were at a true leaf stage between 0 to 6 leaves.
(§6) Assessment of phytotoxicity was made by comparison with untreated control pots on an arbitrary scale from 0 to 100%, where 0 represents no visible effect and 100 represents a kill of all plants. The results in the tables and figures are presented as average values of three replicates.

[2] = test system: Galium aparine (bedstraw cleavers); test: Growth room pot test, post-emergence phytotoxicity on GALAP
Experimental: as §1, §2, §3, §4, §5, §6

[3] = test system: Matricaria chamomilla (mayweed); test: Growth room pot test, post-emergence phytotoxicity on MATCH
Experimental: as §1, §2, §4, §5
(§7) The results in the tables and figures are presented as average values of three replicates.

[4] = test system: Alopecurus myosuroides (black grass); test: Growth room pot test, post-emergence phytotoxicity on ALOMY
Experimental: as §1, §2, §4, §5, §7

[5] = test system: Lamium purpureum (red dead nettle); test: Growth room pot test, post-emergence phytotoxicity on LAMPU
Experimental: as §1, §2, §3, §4, §5, §6

[6] = test system: Stellaria media (common chickweed); test: Growth room pot test, post-emergence phytotoxicity on STEME
Experimental: as §1, §2, §4, §5, §7

Avena fatua (wild oats) = test: Growth room pot test, post-emergence phytotoxicity on AVEFA
Experimental: as §1, §2, §4, §5, §7

weeds = test: Growth room pot test, overall synergy on the weeds; conditions: mixtures of sulfonylurea A or B with co-herbicide
Description: It is generally admitted that, in case of synergism, the effectiveness of the mixture cannot be computed from that of the individual ingredients. Synergism is generally defined as the simultaneous action of two or more compounds in which the total response of an organism to the pesticide combination is greater that the sum of the individual components.
as §1, §2, §4
as §5, with “leaves. […]” for “leaves.”

Compound: CCC(CC)Nc1c([N+](=O)[O-])cc(C)c(C)c1[N+](=O)[O-] [Pendimethalin, pendimethalin]
- Phytotoxicity of herbicide alone ([1]; 1200 g/ha): 90%
- Phytotoxicity of herbicide alone ([2]; 1200 g/ha): 60%
- Phytotoxicity of herbicide alone ([3]; 800 g/ha): 50%
- Phytotoxicity of herbicide alone ([4]; 800 g/ha): 10%
- Phytotoxicity of herbicide alone ([5]; 400 g/ha): 70%
- Phytotoxicity of herbicide alone ([6]; 800 g/ha): 0%
- Phytotoxicity of herbicide alone (Avena fatua (wild oats); 1200 g/ha): 0%

Compound: CC(C)N(C(=O)SCC(Cl)=C(Cl)Cl)C(C)C [Triallate, triallate]
- Phytotoxicity of herbicide alone ([1]; 500 g/ha): 40%
- Phytotoxicity of herbicide alone ([3]; 1500 g/ha): 10%
- Phytotoxicity of herbicide alone ([4]; 1500 g/ha): 50%
- Phytotoxicity of herbicide alone ([5]; 1500 g/ha): 50%
- Phytotoxicity of herbicide alone ([6]; 1000 g/ha): 10%
- Phytotoxicity of herbicide alone (Avena fatua (wild oats); 1500 g/ha): 65%

Compound: Cn1c(-c2ccccc2)cc(-c2ccccc2)[n+]1C [Difenzoquat, difenzoquat]
- Phytotoxicity of herbicide alone ([1]; 200 g/ha): 0%
- Phytotoxicity of herbicide alone ([4]; 600 g/ha): 5%
- Phytotoxicity of herbicide alone ([5]; 600 g/ha): 5%
- Phytotoxicity of herbicide alone ([6]; 400 g/ha): 0%
- Phytotoxicity of herbicide alone (Avena fatua (wild oats); 600 g/ha): 60%

Compound: CCS(=O)(=O)c1nc2sccn2c1S(=O)(=O)NC(=O)Nc1nc(OC)cc(OC)n1 [SU - B]
- Phytotoxicity of herbicide alone ([1]; 20 g/ha): 50%
- Phytotoxicity of herbicide alone ([2]; 20 g/ha): 80%
- Phytotoxicity of herbicide alone ([3]; 20 g/ha): 60%
- Phytotoxicity of herbicide alone ([3]; 30 g/ha): 90%
- Phytotoxicity of herbicide alone ([4]; 20 g/ha): 10%
- Phytotoxicity of herbicide alone ([4]; 30 g/ha): 20% and 40%
- Phytotoxicity of herbicide alone ([5]; 10 g/ha): 0%
- Phytotoxicity of herbicide alone ([6]; 20 g/ha): 20%
- Phytotoxicity of herbicide alone ([6]; 30 g/ha): 30%
- Phytotoxicity of herbicide alone (Avena fatua (wild oats); 20 g/ha): 0% and 5%
- Phytotoxicity of herbicide alone (Avena fatua (wild oats); 30 g/ha): 0%

Compound: Nc1c(Cl)c(F)nc(OCC(=O)O)c1Cl [Fluroxypyr, fluroxypyr]
- Phytotoxicity of herbicide alone ([1]; 100 g/ha): 85%
- Phytotoxicity of herbicide alone ([2]; 50 g/ha): 70%
- Phytotoxicity of herbicide alone ([3]; 100 g/ha): 20%
- Phytotoxicity of herbicide alone ([4]; 100 g/ha): 0%
- Phytotoxicity of herbicide alone ([5]; 1000 g/ha): 50%
- Phytotoxicity of herbicide alone ([6]; 100 g/ha): 60%
- Phytotoxicity of herbicide alone (Avena fatua (wild oats); 100 g/ha): 0%

Compound: CC(C)c1ccc(NC(=O)N(C)C)cc1 [Isoproturon, isoproturon]
- Phytotoxicity of herbicide alone ([1]; 500 g/ha): 0%
- Phytotoxicity of herbicide alone ([2]; 500 g/ha): 0%
- Phytotoxicity of herbicide alone ([4]; 1000 g/ha): 0%
- Phytotoxicity of herbicide alone ([5]; 500 g/ha): 25%
- Phytotoxicity of herbicide alone ([6]; 500 g/ha): 0%
- Phytotoxicity of herbicide alone (Avena fatua (wild oats); 1000 g/ha): 0%

Compound: CCOC(=O)[C@@H](C)Oc1ccc(Oc2nc3ccc(Cl)cc3o2)cc1 [fenoxaprop-P-ethyl]
- Synergistic effect on the weeds (observed higher than expected) (weeds): synergized

Compound: CCS(=O)(=O)c1nc2ccccn2c1S(=O)(=O)NC(=O)Nc1nc(OC)cc(OC)n1 [SU - A]
- Phytotoxicity of herbicide alone ([1]; 10 g/ha): 30% and 20%
- Phytotoxicity of herbicide alone ([1]; 20 g/ha): 70% and 50%
- Phytotoxicity of herbicide alone ([2]; 20 g/ha): 60%
- Phytotoxicity of herbicide alone ([3]; 10 g/ha): 70% and 40%
- Phytotoxicity of herbicide alone ([3]; 20 g/ha): 90% and 45%
- Phytotoxicity of herbicide alone ([3]; 30 g/ha): 70%
- Phytotoxicity of herbicide alone ([4]; 10 g/ha): 10% and 0%
- Phytotoxicity of herbicide alone ([4]; 20 g/ha): 0%
- Phytotoxicity of herbicide alone ([6]; 10 g/ha): 70% and 50%
- Phytotoxicity of herbicide alone ([6]; 20 g/ha): 60%
- Phytotoxicity of herbicide alone ([6]; 30 g/ha): 65% and 55%
- Phytotoxicity of herbicide alone (Avena fatua (wild oats); 10 g/ha): 0%
- Phytotoxicity of herbicide alone (Avena fatua (wild oats); 30 g/ha): 0% and 10%

Compound: imazamethabenz-methyl
- Phytotoxicity of herbicide alone ([1]; 200 g/ha): 0%
- Phytotoxicity of herbicide alone ([1]; 300 g/ha): 10%
- Phytotoxicity of herbicide alone ([3]; 300 g/ha): 5%
- Phytotoxicity of herbicide alone ([4]; 300 g/ha): 15%
- Phytotoxicity of herbicide alone ([5]; 300 g/ha): 60%
- Phytotoxicity of herbicide alone ([6]; 100 g/ha): 10%
- Phytotoxicity of herbicide alone (Avena fatua (wild oats); 100 g/ha): 30%
